# Source: ChEMBL document CHEMBL4038308, “Lipophosphonoxins II: Design, Synthesis, and Properties of Novel Broad Spectrum Antibacterial Agents” (J Med Chem, 2017)
# Activity calls are given as the source filed them. No cut-off for these calls is given here.
# Tests used:
# [1] = Critical micellar concentration of the compound by capillary electrophoresis method
# [2] = test system: Enterococcus faecalis; experiment: Antibacterial activity against Enterococcus faecalis CCM 4224 after 24 hrs by microdilution method; type: functional; settings: CCM 4224, 24 h
# [3] = test system: Staphylococcus aureus; experiment: Antibacterial activity against Staphylococcus aureus CCM 4223 after 24 hrs by microdilution method; type: functional; settings: CCM 4223, 24 h
# [4] = test system: Bacillus subtilis; experiment: Antibacterial activity against Bacillus subtilis after 24 hrs by microdilution method; type: functional
# [5] = test system: Escherichia coli; experiment: Antibacterial activity against Escherichia coli 16702 after 24 hrs by microdilution method; type: functional; settings: Escherichia coli, 16702, 24 h
# [6] = test system: Pseudomonas aeruginosa; experiment: Antibacterial activity against Pseudomonas aeruginosa 16575 after 24 hrs by microdilution method; type: functional; settings: Pseudomonas aeruginosa, 16575, 24 h
# [7] = test system: Staphylococcus aureus; experiment: Antibacterial activity against methicillin-resistant Staphylococcus aureus 4591 clinical isolates after 24 hrs by microdilution method; type: functional; settings: Staphylococcus aureus, 4591, 24 h
# [8] = test system: Staphylococcus haemolyticus; experiment: Antibacterial activity against fluoroquinolne-resistant Staphylococcus haemolyticus 16568 after 24 hrs by microdilution method; type: functional; settings: Staphylococcus haemolyticus, 16568, 24 h
# [9] = test system: Staphylococcus epidermidis; experiment: Antibacterial activity against Staphylococcus epidermidis 8700/B after 24 hrs by microdilution method; type: functional
# [10] = test system: Enterococcus faecium; experiment: Antibacterial activity against vancomycin-resistant Enterococcus faecium 419/ana clinical isolates after 24 hrs by microdilution method; type: functional
# [11] = test system: Salmonella enteritidis; experiment: Antibacterial activity against Salmonella enteritidis S2-25 after 24 hrs by microdilution method; type: functional, Salmonella enterica subsp. enterica serovar Enteritidis; settings: Salmonella enterica, S2-25, 24 h
# [12] = test system: Acinetobacter baumannii; experiment: Antibacterial activity against Acinetobacter baumannii A3-08 after 24 hrs by microdilution method; type: functional; settings: A3-08, 24 h
# [13] = test system: Stenotrophomonas maltophilia; experiment: Antibacterial activity against Stenotrophomonas maltophilia S2-23 after 24 hrs by microdilution method; type: functional; settings: S2-23, 24 h
# [14] = test system: Burkholderia multivorans; experiment: Antibacterial activity against Burkholderia multivorans after 24 hrs by microdilution method; type: functional
# [15] = test system: Escherichia coli; experiment: Bactericidal activity against Escherichia coli CCM 3954 assessed as reduction in bacterial count at 6.25 to 25 mg/L after 45 mins by time kill assay; type: functional
# [16] = test system: Escherichia coli; experiment: Bactericidal activity against Escherichia coli CCM 3954 assessed as bacterial count at 25 mg/L up to 6 hrs by time kill assay; type: functional
# [17] = test system: Escherichia coli; experiment: Bactericidal activity against Escherichia coli CCM 3954 assessed as reduction in bacterial count at 6.25 to 12.5 mg/L after 24 hrs by time kill assay; type: functional
# [18] = test system: Staphylococcus aureus; experiment: Bactericidal activity against Staphylococcus aureus CCM 4223 assessed as reduction in bacterial count at 6.25 to 25 mg/L after 15 mins by time kill assay; type: functional
# [19] = test system: Staphylococcus aureus; experiment: Bactericidal activity against Staphylococcus aureus CCM 4223 assessed as reduction in bacterial count at 6.25 mg/L after 6 to 24 hrs by time kill assay; type: functional
# [20] = test system: Staphylococcus aureus; experiment: Bactericidal activity against Staphylococcus aureus CCM 4223 assessed as reduction in bacterial count at 25 mg/L after 5 hrs by time kill assay; type: functional
# [21] = test system: Staphylococcus aureus; experiment: Bactericidal activity against Staphylococcus aureus CCM 4223 assessed as reduction in bacterial count at 12.5 mg/L after 6 hrs by time kill assay; type: functional
# [22] = test system: Bacillus subtilis; experiment: Antibacterial activity against Bacillus subtilis assessed as inhibition of DNA synthesis at 2.5 mg/L after 50 mins by [3H]thymidine incorporation assay; type: functional
# [23] = test system: Bacillus subtilis; experiment: Antibacterial activity against Bacillus subtilis assessed as inhibition of RNA synthesis at 2.5 mg/L after 50 mins by [3H]-uridine incorporation assay; type: functional
# [24] = test system: Bacillus subtilis; experiment: Antibacterial activity against Bacillus subtilis assessed as inhibition of peptidoglycan synthesis at 2.5 mg/L after 50 mins by [3H]-N-acetylglucosamine incorporation assay; type: functional
# [25] = test system: Bacillus subtilis; experiment: Antibacterial activity against Bacillus subtilis assessed as inhibition of plasma membrane lipids synthesis at 2.5 mg/L after 50 mins by [3H]-sodium acetate incorporation assay; type: functional
# [26] = test system: Bacillus subtilis; experiment: Antibacterial activity against Bacillus subtilis assessed as inhibition of protein synthesis at 2.5 mg/L after 50 mins by [35S]-methionine incorporation assay; type: functional
# [27] = test system: Lipid bilayer; experiment: Binding affinity to DOPG large unilamellar vesicle assessed as carboxyfluorescein leakage at 10 mg/L after 20 secs by fluorescence-based assay relative to control
# [28] = test system: Staphylococcus aureus; experiment: Induction of cytoplasmic membrane permeabilization in Staphylococcus aureus CCM 4223 assessed as increase in propidium iodide fluorescence intensity at 5 mg/L by spectrofluorometric analysis; type: functional
# [29] = test system: Staphylococcus epidermidis; experiment: Induction of cytoplasmic membrane permeabilization in Staphylococcus epidermidis 8700/B assessed as increase in propidium iodide fluorescence intensity at 5 mg/L by spectrofluorometric analysis; type: functional
# [30] = test system: Pseudomonas aeruginosa; experiment: Induction of cytoplasmic membrane permeabilization in Pseudomonas aeruginosa CCM 3955 assessed as increase in propidium iodide fluorescence intensity at 5 mg/L by spectrofluorometric analysis; type: functional
# [31] = test system: TERT-RPE1; experiment: Cytotoxicity against human RPE1 cells assessed as reduction in cell viability after 48 hrs by ATPlite reagent based assay; settings: tert-rpe1, 48 h
# [32] = test system: HepG2; experiment: Cytotoxicity against human HepG2 cells assessed as reduction in cell viability after 48 hrs by ATPlite reagent based assay; settings: hepg2, 48 h
# [33] = test system: TERT-RPE1; experiment: Induction of apoptosis in human RPE1 cells assessed as caspase 3/7 activation up to 80 mg/L after 4 hrs by caspase-Glo 3/7 luminescent assay; type: cell-based; settings: tert-rpe1, 4 h
# [34] = test system: HepG2; experiment: Cytotoxicity against human HepG2 cells assessed as disruption of cell membrane integrity after 4 hrs by CytoTox-ONE-based assay; settings: hepg2, 4 h
# [35] = Apparent permeability across apical to basolateral side in human Caco2 cells at 200 uM after 3 hrs by LC-MS analysis; type: ADME, cell-based; settings: caco-2, 3 h
# [36] = Chemical stability of compound at 50 to 500 mg/L at pH 0.18 after 24 hrs at room temperature by LC-MS analysis; type: physicochemical; settings: buffer, pH 0.18, 24 h
# [37] = Chemical stability of compound at 50 to 500 mg/L at pH 5 after 24 hrs at room temperature by LC-MS analysis; type: physicochemical; settings: buffer, pH 5, 24 h
# [38] = test system: Oryctolagus cuniculus; experiment: Toxicity in topically applied rabbit assessed as skin irritation measured up to 14 days post dose; settings: in vivo, topical_or_ocular, 336 h
# [39] = test system: Oryctolagus cuniculus; experiment: Toxicity in topically dosed rabbit assessed as skin irritation by measuring behavioral abnormalities measured up to 7 days post dose; type: organism-based; settings: in vivo, topical_or_ocular, 168 h
# [40] = test system: TERT-RPE1; experiment: Cytotoxicity against human RPE1 cells assessed as disruption of cell membrane integrity at >80 mg/L after 4 hrs by CytoTox-ONE-based assay; settings: tert-rpe1, 4 h
# [41] = Chemical stability of compound at 50 to 500 mg/L at pH 0.18 after 24 hrs at 37 degC by LC-MS analysis; type: physicochemical; settings: buffer, pH 0.18, 24 h
# [42] = Chemical stability of compound at 50 to 500 mg/L at pH 8.8 after 24 hrs at 37 degC by LC-MS analysis; type: physicochemical; settings: buffer, pH 8.8, 24 h
# [43] = test system: Oryctolagus cuniculus; experiment: Toxicity in topically applied rabbit assessed as skin irritation measured by measuring physiological abnormalities up to 7 days post dose; settings: in vivo, topical_or_ocular, 168 h
smiles,measurement,setting,value
CCCCCCCCCCCCCCOP(=O)(CCN(CCCN)CCCN)OC[C@H]1O[C@@H](n2ccc(=O)[nH]c2=O)[C@H](O)[C@@H]1O (stereo partly drawn),CMC,[1],4.55 mM
same,MIC,[2],25 µg/mL
same,MIC,[3],6.25 µg/mL
same,MIC,[4],0.78 µg/mL
same,MIC,[5],3.13 µg/mL
same,MIC,[6],1.56 µg/mL
same,MIC,[7],6.25 µg/mL
same,MIC,[8],1.56 µg/mL
same,MIC,[9],1.56 µg/mL
same,MIC,[10],100 µg/mL
same,MIC,[11],3.13 µg/mL
same,MIC,[12],12.5 µg/mL
same,MIC,[13],12.5 µg/mL
same,MIC,[14],50 µg/mL
same,Activity,[15],Active
same,Activity,[16],0
same,Activity,[17],Active
same,Activity,[18],Active
same,Activity,[19],Active
same,Activity,[20],Active
same,Activity,[21],Active
same,inhibition,[22],inactive
same,inhibition,[23],inactive
same,inhibition,[24],inactive
same,inhibition,[25],inactive
same,inhibition,[26],inactive
same,Activity,[27],Active
same,Activity,[28],Active
same,Activity,[29],Active
same,Activity,[30],Active
same,Activity,[31],43 mg/L
same,Activity,[32],40.3 mg/L
same,Activity,[33],Non-Toxic
same,Activity,[34],Non-Toxic
same,permeability,[35],Impermeable
same,Stability,[36],Stable
same,Stability,[37],Stable
same,Activity,[38],Non-Toxic
same,Activity,[39],Non-Toxic
same,Activity,[40],Non-Toxic
same,Stability,[41],Stable
same,Stability,[42],Stable
same,Activity,[43],Non-Toxic
